Assays:
B. subtilis 168 [1] = assay: fitness (endpoint OD595 vs no drug) (fraction); higher = more growth
Outline: (§1)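 With the first reading as background, OD595 was measured every 30 min for 14 h in 384-well plates kept at 37 °C and inoculated at OD595 0.01. TSB, LB Lennox or CY was the medium. Fitness is the optical density at the transition into stationary phase divided by the robust mean of no-drug control wells, with a cap of 1.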

S. aureus Newman [2] = assay: as above
Outline: as §1

S. pneumoniae D39V [3] = assay: as above
Outline: as §1

B. subtilis 168 [4] = assay: Bliss interaction score (quartile over a dose matrix) (fitness difference); higher = more antagonism (negative = synergy)
Outline: (§2)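 Growth was read as OD595 when cultures entered stationary phase, and each value was divided by the plate's robust no-drug mean and capped at 1. This normalised ratio is the fitness value, and fitness for each single drug came from the combination data. The Bliss score subtracts the expected fitness, taken as the product, from the observed fitness and is given as quartiles across technical, biological and donor/recipient replicates.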

S. aureus DSM 20231 = assay: as above
Outline: as §2

S. aureus Newman [5] = assay: as above
Outline: as §2

S. pneumoniae D39V [6] = assay: as above
Outline: as §2
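For Bliss interaction score (quartile over a dose matrix) in this document: first quartile when negative (synergy) and third quartile when positive (antagonism).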
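For fitness (endpoint OD595 vs no drug) in this document: OD595 on entry to stationary phase over no-drug wells; at most 1.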

COc1cccc2c1C(=O)c1c(O)c3c(c(O)c1C2=O)C[C@@](O)(C(=O)CO)C[C@@H]3O[C@H]1C[C@H](N)[C@H](O)[C@H](C)O1 [Doxorubicin] + CN(C)c1cc(NC(=O)CNC(C)(C)C)c(O)c2c1C[C@H]1C[C@H]3[C@H](N(C)C)C(O)=C(C(N)=O)C(=O)[C@@]3(O)C(O)=C1C2=O [Tigecycline]
fitness
Settings	first compound 0.25 µg/mL	first compound 0.5 µg/mL	first compound 0.625 µg/mL	first compound 1 µg/mL	first compound 1.25 µg/mL	first compound 2.5 µg/mL
B. subtilis 168 [1], partner 0.039 µg/mL	–	–	≥ 1	–	0.952	0.65
B. subtilis 168 [1], partner 0.078 µg/mL	–	–	0.868	–	0.939	0.609
B. subtilis 168 [1], partner 0.156 µg/mL	–	–	0.919	–	0.879	0.693
S. aureus Newman [2], partner 0.039 µg/mL	–	–	0.783	–	0.761	0.71
S. aureus Newman [2], partner 0.078 µg/mL	–	–	0.822	–	0.821	0.742
S. aureus Newman [2], partner 0.156 µg/mL	–	–	0.828	–	0.811	0.744
S. pneumoniae D39V [3], partner 0.325 µg/mL	0.927	0.975	–	0.931	–	–
S. pneumoniae D39V [3], partner 0.65 µg/mL	0.928	0.94	–	0.89	–	–
S. pneumoniae D39V [3], partner 1.3 µg/mL	0.926	0.961	–	0.884	–	–
S. pneumoniae D39V [3], partner 2.6 µg/mL	0.874	0.912	–	0.79	–	–

fitness, B. subtilis 168 [1], one replicate
Settings	first compound 0.625 µg/mL	first compound 1.25 µg/mL	first compound 2.5 µg/mL
partner 0.125 µg/mL	0.963	0.984	0.973
partner 0.25 µg/mL	0.89	0.892	0.916
partner 0.5 µg/mL	0.86	0.913	0.925

Settings	Bliss interaction score
B. subtilis 168 [4]	0.0886
S. aureus DSM 20231	-0.0419
S. aureus Newman [5]	-0.0645
S. pneumoniae D39V [6]	0.0654

Cc1ncc([N+](=O)[O-])n1CCO [Metronidazole] + CN[C@@H]1[C@H](O[C@H]2[C@H](O[C@H]3[C@H](O)[C@@H](O)[C@H](N=C(N)N)[C@@H](O)[C@@H]3N=C(N)N)O[C@@H](C)[C@]2(O)C=O)O[C@@H](CO)[C@H](O)[C@H]1O [Streptomycin]
fitness
Settings	partner 1 µg/mL	partner 2 µg/mL	partner 4 µg/mL	partner 8 µg/mL
B. subtilis 168 [1], first compound 0.625 µg/mL	–	0.996	0.657	0.0295
B. subtilis 168 [1], first compound 1.25 µg/mL	–	0.997	0.633	0.0395
B. subtilis 168 [1], first compound 2.5 µg/mL	–	0.995	0.636	0.0352
S. aureus Newman [2], first compound 0.625 µg/mL	0.91	0.956	0.909	–
S. aureus Newman [2], first compound 0.781 µg/mL	0.966	0.899	–	–
S. aureus Newman [2], first compound 1.25 µg/mL	0.986	0.967	0.935	–
S. aureus Newman [2], first compound 1.562 µg/mL	≥ 1	0.917	–	–
S. aureus Newman [2], first compound 2.5 µg/mL	0.928	0.938	0.889	–
S. aureus Newman [2], first compound 3.124 µg/mL	0.982	0.926	–	–
S. pneumoniae D39V [3], first compound 1.073 µg/mL	–	0.903	0.992	0.945
S. pneumoniae D39V [3], first compound 1.25 µg/mL	–	–	0.992	0.891
S. pneumoniae D39V [3], first compound 2.145 µg/mL	–	0.935	0.977	0.932
S. pneumoniae D39V [3], first compound 2.5 µg/mL	–	–	0.998	0.893
S. pneumoniae D39V [3], first compound 4.29 µg/mL	–	0.871	0.905	0.945
S. pneumoniae D39V [3], first compound 5 µg/mL	–	–	0.981	0.907

fitness, S. pneumoniae D39V [3], one replicate
Settings	first compound 1.25 µg/mL	first compound 2.5 µg/mL	first compound 5 µg/mL
partner 2 µg/mL	≥ 1	≥ 1	0.987
partner 16 µg/mL	0.815	0.787	0.818

Settings	Bliss interaction score
B. subtilis 168 [4]	0.0729
S. aureus DSM 20231	0.0693
S. aureus Newman [5]	0.0764
S. pneumoniae D39V [6]	0.0448
